Measurements reported in patent US8753644B2, “Grass peptides for vaccine” (Circassia Limited, priority 2009, dated 2014).
No end group written: not given here.

Legend:
[1] = test system: peripheral blood mononuclear cells (PBMCs) from grass allergic individuals; experiment: In vitro T cell cytokine release assay (IFN-γ, IL-10, IL-13) in PBMC cultures; assay type: cell-based, human; settings: single peptide; for ≧9/28 +ve for one or more cytokine?: group of 28 subjects; for IFN-γ +ve/28 / IL-10 +ve/28 / IL-13 +ve/28: number of 28 grass allergic subjects positive (reading > four times control well)

Substance | solubility (Solubility of peptides) [µg/mL] | other results
Bio04: Group 5 peptide of Table 2, sequence only in drawing (TALKKAVTAMSEAEKEA) | – | ≧9/28 +ve for one or more cytokine? [1]: Yes; IFN-γ +ve/28 [1]: 12 +ve/28; IL-10 +ve/28 [1]: 8 +ve/28; IL-13 +ve/28 [1]: 5 +ve/28
Bio05: Group 5 peptide of Table 2, sequence only in drawing (NDKFTVFESAFNKALNE) | – | ≧9/28 +ve for one or more cytokine? [1]: Yes; IFN-γ +ve/28 [1]: 11 +ve/28; IL-10 +ve/28 [1]: 1 +ve/28; IL-13 +ve/28 [1]: 5 +ve/28
KFIPTLVAAVKQAYAAKQ [Bio03A] | > 20000 | –
KKPEVKYAVFEAALTKAIT [Rye09B2] | 10000 | –
KYDAYVATLTEALR [Bio02A] | > 20000 | –
PEVKYAVFEAALTKAIT [Rye09B] | 5000 | –
SGKAFGAMAKKGQED [Ber01, SGKAFGAMAKKGQED] | – | solubility (physchem): > 20000 µg/mL
WGAIWRIDTPDKL [Tim04A] | 2000 | –

Now from value to substance, other results behind:

solubility (Solubility of peptides) [µg/mL] | Substance | other results
> 20000 | FIPMKSSWGA [Ber02] | –
> 20000 | KDSDEFIPMKSSWGAIWR [Ber02B] | –
10000 | KPEVKYAVFEAALTKAIT [Rye09B1] | –
> 20000 | KSSWGAIWRIDPKKPLK [Ber02C] | –
> 20000 | LKKAVTAMSEAEK [Bio04A] | –
10000 | NAGFKAAVAAAANAPPK [Rye05C] | –
